Data from publication PMC3448056, “2-Benzamido-N-(1H-benzo[d]imidazol-2-yl)thiazole-4-carboxamide derivatives as potent inhibitors of CK1δ/ε” (Amino Acids, 2012).

What was measured:
Assay in all cases: KINOMEscan selectivity profiling
Type in all cases: binding
CSNK1E = molecular target: T1, CSNK1E (Homo sapiens, UniProt P49674); settings: remaining relative to controls, read-out: %Ctrl @ 10 μM (CSNK1E)
T1 construct: purchased Ambit Biosciences Cooperation, San Diego, USA (KINOMEscan)
Protocol: (§1) KINOMEscan™ was performed to determine binding constants of coumpound 5 to 442 eukaryotic kinases by Ambit Biosciences Cooperation, San Diego, USA.

TAOK3 = molecular target: T2, TAOK3 (Homo sapiens, UniProt Q9H2K8); settings: remaining relative to controls, read-out: %Ctrl @ 10 μM (TAOK3)
T2 construct: purchased Ambit Biosciences Cooperation, San Diego, USA (KINOMEscan service)
T2 sequence (Q9H2K8 whole entry): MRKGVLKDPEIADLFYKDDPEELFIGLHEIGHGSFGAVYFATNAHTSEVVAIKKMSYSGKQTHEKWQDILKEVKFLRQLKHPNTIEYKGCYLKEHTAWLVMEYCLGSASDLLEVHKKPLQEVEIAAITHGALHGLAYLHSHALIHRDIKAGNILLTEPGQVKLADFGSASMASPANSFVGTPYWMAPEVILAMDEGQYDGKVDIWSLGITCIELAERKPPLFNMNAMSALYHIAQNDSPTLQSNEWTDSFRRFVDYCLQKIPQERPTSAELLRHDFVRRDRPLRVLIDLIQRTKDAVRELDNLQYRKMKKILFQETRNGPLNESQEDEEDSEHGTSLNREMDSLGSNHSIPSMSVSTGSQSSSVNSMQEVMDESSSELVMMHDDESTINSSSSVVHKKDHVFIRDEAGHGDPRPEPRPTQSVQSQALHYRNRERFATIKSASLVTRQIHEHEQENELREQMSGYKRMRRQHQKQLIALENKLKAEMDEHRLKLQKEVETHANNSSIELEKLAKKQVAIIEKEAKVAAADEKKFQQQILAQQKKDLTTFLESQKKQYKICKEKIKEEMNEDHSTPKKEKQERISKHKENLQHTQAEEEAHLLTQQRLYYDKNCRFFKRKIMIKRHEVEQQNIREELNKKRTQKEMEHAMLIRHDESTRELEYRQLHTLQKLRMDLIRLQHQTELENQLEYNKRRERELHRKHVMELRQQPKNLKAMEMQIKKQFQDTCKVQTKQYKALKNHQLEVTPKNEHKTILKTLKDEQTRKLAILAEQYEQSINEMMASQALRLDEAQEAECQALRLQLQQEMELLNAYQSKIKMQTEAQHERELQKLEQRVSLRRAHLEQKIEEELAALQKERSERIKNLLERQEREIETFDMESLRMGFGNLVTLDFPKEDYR
Protocol: as §1

CSNK1D = molecular target: T3, CSNK1D (Homo sapiens, UniProt P48730); settings: remaining relative to controls, read-out: %Ctrl @ 10 μM (CSNK1D)
T3 construct: purchased Ambit Biosciences Cooperation, San Diego, USA (KINOMEscan)
Protocol: as §1

CLK2 = molecular target: T4, CLK2 (Homo sapiens, UniProt P49760); settings: remaining relative to controls, read-out: %Ctrl @ 10 μM (CLK2)
T4 construct: purchased Ambit Biosciences Cooperation, San Diego, USA (KINOMEscan)
T4 sequence (P49760 whole entry): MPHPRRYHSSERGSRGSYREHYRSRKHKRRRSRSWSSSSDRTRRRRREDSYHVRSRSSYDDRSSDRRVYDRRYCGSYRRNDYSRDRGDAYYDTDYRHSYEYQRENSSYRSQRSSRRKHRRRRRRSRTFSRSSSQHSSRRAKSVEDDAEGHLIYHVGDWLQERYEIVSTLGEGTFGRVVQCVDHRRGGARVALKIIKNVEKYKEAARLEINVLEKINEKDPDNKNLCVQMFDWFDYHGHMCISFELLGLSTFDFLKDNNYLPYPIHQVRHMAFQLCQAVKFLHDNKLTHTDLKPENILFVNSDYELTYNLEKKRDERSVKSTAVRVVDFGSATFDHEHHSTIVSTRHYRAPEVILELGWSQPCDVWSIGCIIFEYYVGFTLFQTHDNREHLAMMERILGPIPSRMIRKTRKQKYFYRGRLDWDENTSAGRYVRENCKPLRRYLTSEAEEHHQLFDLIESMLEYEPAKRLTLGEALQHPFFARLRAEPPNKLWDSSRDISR
Protocol: as §1

SLK = molecular target: T5, SLK (Homo sapiens, UniProt Q9H2G2); settings: remaining relative to controls, read-out: %Ctrl @ 10 μM (SLK)
T5 construct: purchased Ambit Biosciences Cooperation, San Diego, USA (KINOMEscan)
Protocol: as §1

DYRK2 = molecular target: T6, DYRK2 (Homo sapiens, UniProt Q92630); settings: remaining relative to controls, read-out: %Ctrl @ 10 μM (DYRK2)
T6 construct: purchased Ambit Biosciences Cooperation, San Diego, USA (KINOMEscan)
T6 sequence (Q92630 whole entry): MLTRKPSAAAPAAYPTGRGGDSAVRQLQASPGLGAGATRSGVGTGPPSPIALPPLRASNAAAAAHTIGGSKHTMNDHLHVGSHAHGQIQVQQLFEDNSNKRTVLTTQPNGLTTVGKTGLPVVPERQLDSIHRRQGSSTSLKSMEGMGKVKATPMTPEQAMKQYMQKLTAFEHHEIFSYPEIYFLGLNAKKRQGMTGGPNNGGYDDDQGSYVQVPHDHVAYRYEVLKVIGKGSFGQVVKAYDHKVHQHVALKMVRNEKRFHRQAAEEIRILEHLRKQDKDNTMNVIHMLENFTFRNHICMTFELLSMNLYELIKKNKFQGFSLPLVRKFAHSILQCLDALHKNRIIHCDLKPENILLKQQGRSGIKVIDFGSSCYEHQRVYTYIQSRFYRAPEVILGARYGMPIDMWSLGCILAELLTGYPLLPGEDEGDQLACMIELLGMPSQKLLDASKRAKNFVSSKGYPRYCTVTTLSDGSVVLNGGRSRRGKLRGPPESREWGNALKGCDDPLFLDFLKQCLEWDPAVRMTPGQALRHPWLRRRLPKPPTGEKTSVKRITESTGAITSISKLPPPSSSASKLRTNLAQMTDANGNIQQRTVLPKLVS
Protocol: as §1

TAOK1 = molecular target: T7, TAOK1 (Homo sapiens, UniProt Q7L7X3); settings: remaining relative to controls, read-out: %Ctrl @ 10 μM (TAOK1)
T7 construct: purchased Ambit Biosciences Cooperation, San Diego, USA (KINOMEscan service)
T7 sequence (Q7L7X3 whole entry): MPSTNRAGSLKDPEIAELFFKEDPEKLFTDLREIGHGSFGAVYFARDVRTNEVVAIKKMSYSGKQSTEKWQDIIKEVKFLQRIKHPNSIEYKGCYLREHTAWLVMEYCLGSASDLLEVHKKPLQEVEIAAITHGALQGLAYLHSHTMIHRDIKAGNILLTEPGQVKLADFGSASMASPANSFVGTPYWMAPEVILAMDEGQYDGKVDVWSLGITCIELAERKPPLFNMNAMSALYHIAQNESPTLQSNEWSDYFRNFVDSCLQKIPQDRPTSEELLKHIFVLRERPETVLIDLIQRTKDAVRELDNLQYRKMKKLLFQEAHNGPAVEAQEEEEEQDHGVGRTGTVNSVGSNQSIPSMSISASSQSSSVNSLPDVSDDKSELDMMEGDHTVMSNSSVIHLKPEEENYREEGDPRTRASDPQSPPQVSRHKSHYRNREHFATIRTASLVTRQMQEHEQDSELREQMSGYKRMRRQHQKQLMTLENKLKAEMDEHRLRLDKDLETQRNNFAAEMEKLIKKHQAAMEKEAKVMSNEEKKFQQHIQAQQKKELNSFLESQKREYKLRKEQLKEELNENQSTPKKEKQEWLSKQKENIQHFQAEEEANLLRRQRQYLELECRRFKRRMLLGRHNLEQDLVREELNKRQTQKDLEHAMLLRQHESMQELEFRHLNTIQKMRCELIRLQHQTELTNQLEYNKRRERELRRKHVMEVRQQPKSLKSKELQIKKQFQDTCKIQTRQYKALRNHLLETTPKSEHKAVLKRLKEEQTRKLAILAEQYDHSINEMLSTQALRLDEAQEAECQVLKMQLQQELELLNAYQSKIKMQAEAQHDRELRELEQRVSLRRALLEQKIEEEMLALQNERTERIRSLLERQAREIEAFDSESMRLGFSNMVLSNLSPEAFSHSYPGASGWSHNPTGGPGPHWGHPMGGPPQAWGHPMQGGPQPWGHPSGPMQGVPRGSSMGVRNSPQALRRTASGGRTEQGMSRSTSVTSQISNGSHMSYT
Protocol: as §1

CSNK1G2 = molecular target: T8, CSNK1G2 (Homo sapiens, UniProt P78368); settings: remaining relative to controls, read-out: %Ctrl @ 10 μM (CSNK1G2)
T8 construct: purchased Ambit Biosciences Cooperation, San Diego, USA (KINOMEscan)
T8 sequence (P78368 whole entry): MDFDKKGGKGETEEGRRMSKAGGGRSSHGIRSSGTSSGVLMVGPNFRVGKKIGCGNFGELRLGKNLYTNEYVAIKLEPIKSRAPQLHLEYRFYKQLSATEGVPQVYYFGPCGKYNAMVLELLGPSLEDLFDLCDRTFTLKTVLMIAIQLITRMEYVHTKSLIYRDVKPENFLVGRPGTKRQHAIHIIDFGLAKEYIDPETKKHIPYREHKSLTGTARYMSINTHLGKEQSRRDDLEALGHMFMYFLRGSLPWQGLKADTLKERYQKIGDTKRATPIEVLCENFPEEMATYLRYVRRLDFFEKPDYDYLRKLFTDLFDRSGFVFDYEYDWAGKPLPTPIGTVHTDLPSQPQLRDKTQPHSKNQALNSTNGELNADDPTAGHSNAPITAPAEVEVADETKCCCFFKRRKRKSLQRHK
Protocol: as §1

CSNK1A1 = molecular target: T9, CSNK1A1 (Homo sapiens, UniProt P48729); settings: remaining relative to controls, read-out: %Ctrl @ 10 μM (CSNK1A1)
T9 construct: purchased Ambit Biosciences Cooperation, San Diego, USA (KINOMEscan)
Protocol: as §1

CSNK1G3 = molecular target: T10, CSNK1G3 (Homo sapiens, UniProt Q9Y6M4); settings: remaining relative to controls, read-out: %Ctrl @ 10 μM (CSNK1G3)
T10 construct: purchased Ambit Biosciences Cooperation, San Diego, USA (KINOMEscan)
T10 sequence (Q9Y6M4 whole entry): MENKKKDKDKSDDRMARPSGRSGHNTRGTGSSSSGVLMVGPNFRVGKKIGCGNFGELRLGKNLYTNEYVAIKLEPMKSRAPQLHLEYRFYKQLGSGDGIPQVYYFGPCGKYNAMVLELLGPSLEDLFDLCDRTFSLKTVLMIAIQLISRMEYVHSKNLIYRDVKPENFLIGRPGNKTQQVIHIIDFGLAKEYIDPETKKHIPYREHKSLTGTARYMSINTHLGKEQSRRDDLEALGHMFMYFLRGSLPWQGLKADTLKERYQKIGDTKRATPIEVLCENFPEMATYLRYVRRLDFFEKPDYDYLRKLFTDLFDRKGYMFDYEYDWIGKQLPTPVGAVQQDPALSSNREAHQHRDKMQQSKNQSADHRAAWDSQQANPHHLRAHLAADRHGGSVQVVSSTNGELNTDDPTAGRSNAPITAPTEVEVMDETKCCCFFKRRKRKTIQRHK
Protocol: as §1

DYRK1B = molecular target: T11, DYRK1B (Homo sapiens, UniProt Q9Y463); settings: remaining relative to controls, read-out: %Ctrl @ 10 μM (DYRK1B)
T11 construct: purchased Ambit Biosciences Cooperation, San Diego, USA (KINOMEscan)
T11 sequence (Q9Y463 whole entry): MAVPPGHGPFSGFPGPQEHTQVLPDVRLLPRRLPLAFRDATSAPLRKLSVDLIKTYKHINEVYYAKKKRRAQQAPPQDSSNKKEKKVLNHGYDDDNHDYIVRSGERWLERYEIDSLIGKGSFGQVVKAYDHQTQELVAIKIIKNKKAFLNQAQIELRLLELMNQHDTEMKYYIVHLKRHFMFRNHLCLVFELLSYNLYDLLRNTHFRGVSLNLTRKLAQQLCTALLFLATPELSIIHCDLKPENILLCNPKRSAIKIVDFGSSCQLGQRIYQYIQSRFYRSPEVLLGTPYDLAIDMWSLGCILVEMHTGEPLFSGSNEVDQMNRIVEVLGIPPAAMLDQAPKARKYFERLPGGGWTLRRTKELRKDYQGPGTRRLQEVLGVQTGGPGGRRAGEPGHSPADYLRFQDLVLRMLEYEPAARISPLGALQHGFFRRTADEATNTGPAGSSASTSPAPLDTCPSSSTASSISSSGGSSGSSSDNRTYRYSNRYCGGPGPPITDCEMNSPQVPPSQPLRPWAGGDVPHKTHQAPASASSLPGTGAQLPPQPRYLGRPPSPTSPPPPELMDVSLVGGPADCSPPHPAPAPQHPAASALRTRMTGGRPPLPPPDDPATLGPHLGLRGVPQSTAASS
Protocol: as §1

CSNK1A1L = molecular target: T12, CSNK1A1L (Homo sapiens, UniProt Q8N752); settings: remaining relative to controls, read-out: %Ctrl @ 10 μM (CSNK1A1L)
T12 construct: purchased Ambit Biosciences Cooperation, San Diego, USA (KINOMEscan)
T12 sequence (Q8N752 whole entry): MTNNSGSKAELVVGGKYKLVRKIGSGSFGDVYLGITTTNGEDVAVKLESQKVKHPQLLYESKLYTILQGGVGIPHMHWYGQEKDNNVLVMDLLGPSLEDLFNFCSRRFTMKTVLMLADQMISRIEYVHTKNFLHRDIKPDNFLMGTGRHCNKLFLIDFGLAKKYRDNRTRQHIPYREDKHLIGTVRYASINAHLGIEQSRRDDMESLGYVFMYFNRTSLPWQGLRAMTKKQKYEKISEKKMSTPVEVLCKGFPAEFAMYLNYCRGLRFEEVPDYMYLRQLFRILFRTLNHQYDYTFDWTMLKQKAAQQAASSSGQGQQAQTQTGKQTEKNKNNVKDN
Protocol: as §1

CLK4 = molecular target: T13, CLK4 (Homo sapiens, UniProt Q9HAZ1); settings: remaining relative to controls, read-out: %Ctrl @ 10 μM (CLK4)
T13 construct: purchased Ambit Biosciences Cooperation, San Diego, USA (KINOMEscan)
Protocol: as §1

FLT3(D835Y) = molecular target: T14, FLT3(D835Y) (Homo sapiens, UniProt P36888, D835Y); settings: remaining relative to controls, read-out: %Ctrl @ 10 μM (FLT3(D835Y))
T14 construct: purchased Ambit Biosciences Cooperation, San Diego, USA (KINOMEscan)
Protocol: as §1

remaining binding at 10 µM (CSNK1E): 0.35%
remaining binding at 10 µM (TAOK3): 20%
remaining binding at 10 µM (CSNK1D): 2%
remaining binding at 10 µM (CLK2): 10%
remaining binding at 10 µM (SLK): 12%
remaining binding at 10 µM (DYRK2): 17%
remaining binding at 10 µM (TAOK1): 24%
remaining binding at 10 µM (CSNK1G2): 9.9%
remaining binding at 10 µM (CSNK1A1): 3%
remaining binding at 10 µM (CSNK1G3): 31%
remaining binding at 10 µM (DYRK1B): 6.6%
remaining binding at 10 µM (CSNK1A1L): 1%
remaining binding at 10 µM (CLK4): 7.2%
remaining binding at 10 µM (FLT3(D835Y)): 10%
Compound: O=C(Nc1nc2ccc(C(F)(F)F)cc2[nH]1)c1csc(NC(=O)c2ccccc2OC(F)(F)F)n1 [Compound 5, 2-(2-(Trifluoromethoxy)benzamido)-N-(6-(trifluoromethyl)-1H-benzo[d]imidazol-2-yl)thiazole-4-carboxamide]
